According to patent publication US20130066055A1, “NEW BINDER-DRUG CONJUGATES (ADCS) AND USE THEREOF” (Bayer Intellectual Property GmbH, priority 2011, published 2013):
Where a name gives a salt, the structure may show the parent alone. Square brackets hold non-standard residues; d marks the D form. Peptide text beside a SMILES is read from it. * marks the point of attachment. X2 = CC(C)[C@@H](C(=O)*)N(C)CCCCCCN1C(=O)CC(SC[C@H](N)C(=O)O)C1=O; X1 = CC(C)[C@@H](C(=O)*)N(C)CCCCCC(=O)NCCCC[C@H](N)C(=O)O; Dolaproine = CO[C@@H]([C@@H]1CCCN1)[C@@H](C)C(=O)O; Dil = CC[C@H](C)[C@H](NC)[C@@H](CC(=O)O)OC; X5 = C[C@@H](N*)[C@@H](O)c1ccccc1; Oxazinan2yl(1,2) = C1CCN(*)OC1; NMeV = CN[C@H](C(=O)O)C(C)C

Legend:
tubulin = assay: Fluorescence-based microtubule (tubulin) polymerization assay; format: biochemical
Protocol: Tubulin polymerization was investigated using the “Fluorescence-based Microtubule Polymerisation Assay Kit” from Cytoskeleton (Denver, Colo., USA; order number: BK011). With this assay, GTP is added to unpolymerized tubulin, allowing polymerization to take place spontaneously. The assay is based on the binding of the fluorophore 4′,6-di-amidino-2-phenylindole (DAPI) to tubulin. Free and bound DAPI can be differentiated on the basis of different emission spectra.
[…] In addition to the buffer control, paclitaxel, with a polymerization-increasing effect, and vinblastin, with a polymerization inhibiting effect, were run additionally as assay controls. Measurement was carried out using 96-well plates with a half base area. The kinetics of the tubulin polymerization were monitored in a Fluorimeter at 37° C. for 1 hour. The excitation wavelength was 355 nm, and emission was monitored at 460 nm. For the region of linear increase within the first 10 minutes, a calculation was made of the change in fluorescence per minute (ΔF/min), which represents the polymerization rate of the microtubuli. The potency of the test substances was quantified on the basis of their respective reduction of the polymerization rate.

[1] = biological target: T1, P-glycoprotein (P-gp, ABCB1) (Homo sapiens, UniProt P08183); assay: Flux assay in P-gp overexpressing L-MDR1 cells; format: in vitro ADME; conditions: LLC-PK1, basal to apical
T1 construct: expressed in transfected cells; host or cells: LLC-PK1 (pig kidney) cells transfected with human MDR1 (L-MDR1 cells)
T1 sequence (P08183 whole entry): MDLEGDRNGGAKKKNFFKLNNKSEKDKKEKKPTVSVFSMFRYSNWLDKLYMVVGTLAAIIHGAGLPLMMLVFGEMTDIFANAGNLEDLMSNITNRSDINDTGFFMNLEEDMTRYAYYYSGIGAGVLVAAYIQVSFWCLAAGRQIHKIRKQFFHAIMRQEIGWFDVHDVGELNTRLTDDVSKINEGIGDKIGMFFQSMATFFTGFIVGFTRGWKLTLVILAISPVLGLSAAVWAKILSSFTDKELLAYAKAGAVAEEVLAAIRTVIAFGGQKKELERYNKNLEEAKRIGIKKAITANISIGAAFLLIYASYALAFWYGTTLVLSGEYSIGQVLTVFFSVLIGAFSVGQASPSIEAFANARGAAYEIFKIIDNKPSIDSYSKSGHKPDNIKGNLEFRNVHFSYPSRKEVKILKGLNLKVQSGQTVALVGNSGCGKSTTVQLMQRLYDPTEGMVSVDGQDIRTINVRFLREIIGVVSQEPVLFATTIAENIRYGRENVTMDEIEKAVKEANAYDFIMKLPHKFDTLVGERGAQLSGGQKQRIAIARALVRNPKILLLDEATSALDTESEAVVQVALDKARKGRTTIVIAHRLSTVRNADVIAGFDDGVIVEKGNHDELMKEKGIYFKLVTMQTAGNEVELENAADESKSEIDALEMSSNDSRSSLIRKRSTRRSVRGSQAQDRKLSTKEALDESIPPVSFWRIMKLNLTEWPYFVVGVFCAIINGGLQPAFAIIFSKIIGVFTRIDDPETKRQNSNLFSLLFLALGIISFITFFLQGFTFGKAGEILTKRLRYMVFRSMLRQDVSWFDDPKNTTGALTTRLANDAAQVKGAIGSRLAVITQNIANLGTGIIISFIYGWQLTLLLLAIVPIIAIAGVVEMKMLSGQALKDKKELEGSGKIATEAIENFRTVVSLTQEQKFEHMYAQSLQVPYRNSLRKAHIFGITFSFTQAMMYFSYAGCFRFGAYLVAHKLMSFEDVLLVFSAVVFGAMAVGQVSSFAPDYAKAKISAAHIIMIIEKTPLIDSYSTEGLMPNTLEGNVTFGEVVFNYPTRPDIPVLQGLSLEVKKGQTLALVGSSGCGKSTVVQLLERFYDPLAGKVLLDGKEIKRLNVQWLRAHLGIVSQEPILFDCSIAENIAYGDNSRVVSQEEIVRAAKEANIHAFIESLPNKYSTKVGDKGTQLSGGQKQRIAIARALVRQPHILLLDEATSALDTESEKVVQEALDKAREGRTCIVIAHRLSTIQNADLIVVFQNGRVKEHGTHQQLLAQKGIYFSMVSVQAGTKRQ
Protocol: The substrate properties of a substance for P-gp (ABCB1) were determined by means of a flux assay using LLC-PK1 cells which overexpress P-gp (L-MDR1 cells) [A. H. Schinkel et al., J. Clin. Invest. 96, 1698-1705 (1995)]. For this purpose, the LLC-PK1 cells or L-MDR1 cells were cultured on 96-well filter plates for 3-4 days. For determination of the permeation, the respective test substance, alone or in the presence of an inhibitor (such as Ivermectin or Verapamil, for example), was applied in a HEPES buffer to the cells either apically (A) or basally (B) and incubated for 2 hours. After 0 hours and after 2 hours, samples were taken from the cis and trans compartments. The samples were separated by HPLC using reverse phase columns. The HPLC system was coupled via a Turbo Ion Spray Interface to a Triple Quadropol mass spectrometer API 3000 (Applied Biosystems Applera, Darmstadt, Germany). The permeability was evaluated on the basis of a Papp value which was calculated using the formula published by Schwab et al. [D. Schwab et al., J. Med. Chem. 46, 1716-1725 (2003)].

[2] = Caco-2 flux assay for cell permeability; format: in vitro ADME; conditions: human, Caco-2 cells, basal to apical
Protocol: (§1) The cell permeability of a substance can be investigated by means of in vitro testing in a flux assay using Caco-2 cells [M. D. Troutman and D. R. Thakker, Pharm. Res. 20 (8), 1210-1224 (2003)]. For this purpose, the cells were cultured for 15-16 days on 24-well filter plates. For the determination of permeation, the respective working example was applied in a HEPES buffer to the cells either apically (A) or basally (B) and incubated for 2 hours. After 0 hours and after 2 hours, samples were taken from the cis and trans compartments. The samples were separated by HPLC (Agilent 1200, Böblingen, Germany) using reverse phase columns. The HPLC system was coupled via a Turbo Ion Spray Interface to a Triple Quadropol mass spectrometer API 4000 (Applied Biosystems Applera, Darmstadt, Germany). The permeability was evaluated on the basis of a Papp value, which was calculated using the formula published by Schwab et al. [D. Schwab et al., J. Med. Chem. 46, 1716-1725 (2003)].

Caco-2 cells = assay: Caco-2 flux assay for cell permeability; format: in vitro ADME; conditions: basal to apical, 2 hours
Protocol: as §1

Row | SMILES | Tubulin polymerization in the presence of toxophore in [%]. Tubulin polymerization rate at 1 μM MMAF set at 100% (tubulin; toxophore 1 μM) | Tubulin polymerization in the presence of toxophore in [%]. Tubulin polymerization rate at 1 μM MMAF set at 100% (tubulin; toxophore 10 μM) | Papp B→A at 2 h [1] | Papp B→A at 2 h [2] | Papp (B-A) (Caco-2 cells) | inhibition of tubulin polymerization (tubulin)
1 | CC[C@H](C)[C@@H]([C@@H](CC(=O)N1CCC[C@H]1[C@H](OC)[C@@H](C)C(=O)N[C@@H](Cc1c[nH]c2ccccc12)C(N)=O)OC)N(C)C(=O)[C@@H](NC(=O)[C@H](C(C)C)N(C)CCCCCCN1C(=O)CC(SC[C@H](N)C(=O)O)C1=O)C(C)C (stereo partly drawn) [Example 74, N-[6-(3-{[(2R)-2-Amino-2-carboxyethyl]sulphanyl}-2,5-dioxopyrrolidin-1-yl)hexyl]-N-methyl-L-valyl-N-[(3R,4S,5S)-1-{(2S)-2-[(1R,2R)-3-{[(2S)-1-amino-3-(1H-indol-3-yl)-1-oxopropan-2-yl]amino}-1-methoxy-2-methyl-3-oxopropyl]pyrrolidin-1-yl}-3-methoxy-5-methyl-1-oxoheptan-4-yl]-N-methyl-L-valinamide] (X2-V[Dil][Dolaproine]W-NH2) | 117% | 64% | 0.36 ×10⁻⁶ cm/s | 0.5 ×10⁻⁶ cm/s |  | 
2 | CC[C@H](C)[C@@H]([C@@H](CC(=O)N1CCC[C@H]1[C@H](OC)[C@@H](C)C(=O)N[C@@H](Cc1c[nH]c2ccccc12)C(=O)O)OC)N(C)C(=O)[C@@H](NC(=O)[C@H](C(C)C)N(C)CCCCCCN1C(=O)CC(SC[C@H](N)C(=O)O)C1=O)C(C)C (stereo partly drawn) [Example 75, N-[6-(3-{[(2R)-2-Amino-2-carboxyethyl]sulphanyl}-2,5-dioxopyrrolidin-1-yl)hexyl]-N-methyl-L-valyl-N-[(3R,4S,5S)-1-{(2S)-2-[(1R,2R)-3-{[(1S)-1-carboxy-2-(1H-indol-3-yl)ethyl]amino}-1-methoxy-2-methyl-3-oxopropyl]pyrrolidin-1-yl}-3-methoxy-5-methyl-1-oxoheptan-4-yl]-N-methyl-L-valinamide] (X2-V[Dil][Dolaproine]W-OH) | 107% | 25% | 0.4 ×10⁻⁶ cm/s | 0.1 ×10⁻⁶ cm/s |  | 
3 | CC[C@H](C)[C@@H]([C@@H](CC(=O)N1CCC[C@H]1[C@H](OC)[C@@H](C)C(=O)N[C@@H](Cc1c[nH]c2ccccc12)C(=O)NCc1ccccc1)OC)N(C)C(=O)[C@@H](NC(=O)[C@H](C(C)C)N(C)CCCC(=O)NNC(=O)CCCCCN1C(=O)CC(SC[C@H](N)C(=O)O)C1=O)C(C)C (stereo partly drawn) [Example 77, N-(4-{2-[6-(3-{[(2R)-2-Amino-2-carboxyethyl]sulphanyl}-2,5-dioxopyrrolidin-1-yl)hexanoyl]hydrazino}-4-oxobutyl)-N-methyl-L-valyl-N-[(3R,4S,5S)-1-{(2S)-2-[(1R,2R)-3-{[(2S)-1-(benzylamino)-3-(1H-indol-3-yl)-1-oxopropan-2-yl]amino}-1-methoxy-2-methyl-3-oxopropyl]pyrrolidin-1-yl}-3-methoxy-5-methyl-1-oxoheptan-4-yl]-N-methyl-L-valinamide] | 111% | 45% | 0.2 ×10⁻⁶ cm/s | 0.7 ×10⁻⁶ cm/s |  | 
4 | CC[C@H](C)[C@@H]([C@@H](CC(=O)N1CCC[C@H]1[C@H](OC)[C@@H](C)C(=O)N[C@@H](Cc1c[nH]c2ccccc12)C(=O)N1CCCCO1)OC)N(C)C(=O)[C@@H](NC(=O)[C@H](C(C)C)N(C)CCCCCC(=O)NCCCC[C@H](N)C(=O)O)C(C)C [Example 115, N-(6-{[(5S)-5-Amino-5-carboxypentyl]amino}-6-oxohexyl)-N-methyl-L-valyl-N-[(3R,4S,5S)-1-{(2S)-2-[(1R,2R)-3-{[(2S)-3-(1H-indol-3-yl)-1-(1,2-oxazinan-2-yl)-1-oxopropan-2-yl]amino}-1-methoxy-2-methyl-3-oxopropyl]pyrrolidin-1-yl}-3-methoxy-5-methyl-1-oxoheptan-4-yl]-N-methyl-L-valinamide trifluoroacetate] (X1-V[Dil][Dolaproine]W-{Oxazinan2yl(1,2)}) | 45% | 1% | 0.6 ×10⁻⁶ cm/s | 0.2 ×10⁻⁶ cm/s |  | 
5 | CC[C@H](C)[C@@H]([C@@H](CC(=O)N1CCC[C@H]1[C@H](OC)[C@@H](C)C(=O)N[C@@H](Cc1c[nH]c2ccccc12)C(=O)O)OC)N(C)C(=O)[C@@H](NC(=O)[C@H](C(C)C)N(C)CCCCCC(=O)NCCCC[C@H](N)C(=O)O)C(C)C [Example 116, N-(6-{[(5S)-5-Amino-5-carboxypentyl]amino}-6-oxohexyl)-N-methyl-L-valyl-N-[(3R,4S,5S)-1-{(2S)-2-[(1R,2R)-3-{[(1S)-1-carboxy-2-(1H-indol-3-yl)ethyl]amino}-1-methoxy-2-methyl-3-oxopropyl]pyrrolidin-1-yl}-3-methoxy-5-methyl-1-oxoheptan-4-yl]-N-methyl-L-valinamide] (X1-V[Dil][Dolaproine]W-OH) | 80% | 14% | 0.4 ×10⁻⁶ cm/s | 0.1 ×10⁻⁶ cm/s |  | 
6 | CC[C@H](C)[C@@H]([C@@H](CC(=O)N1CCC[C@H]1[C@H](OC)[C@@H](C)C(=O)N[C@H](C)[C@@H](O)c1ccccc1)OC)N(C)C(=O)[C@@H](NC(=O)[C@@H](NC)C(C)C)C(C)C [MMAE, monomethylauristatin E, reference compound] (H-[NMeV]V[Dil][Dolaproine]-X5) |  |  |  |  | 7.3 ×10⁻⁶ cm/s | 
7 | CC[C@H](C)[C@@H]([C@@H](CC(=O)N1CCC[C@H]1[C@H](OC)[C@@H](C)C(=O)N[C@@H](Cc1ccccc1)C(=O)O)OC)N(C)C(=O)[C@@H](NC(=O)[C@@H](NC)C(C)C)C(C)C [MMAF, Monomethylauristatin F, reference compound] (H-[NMeV]V[Dil][Dolaproine]F-OH) | 100% | 34% |  |  | 7.3 ×10⁻⁶ cm/s | inhibit tubulin polymerization as a function of their concentration
